Target: T1, AR L701H (Homo sapiens, UniProt P10275, L702H)
T1 construct: expressed in transfected cells; host or cells: HepG2
T1 sequence (P10275 1-920 L702H): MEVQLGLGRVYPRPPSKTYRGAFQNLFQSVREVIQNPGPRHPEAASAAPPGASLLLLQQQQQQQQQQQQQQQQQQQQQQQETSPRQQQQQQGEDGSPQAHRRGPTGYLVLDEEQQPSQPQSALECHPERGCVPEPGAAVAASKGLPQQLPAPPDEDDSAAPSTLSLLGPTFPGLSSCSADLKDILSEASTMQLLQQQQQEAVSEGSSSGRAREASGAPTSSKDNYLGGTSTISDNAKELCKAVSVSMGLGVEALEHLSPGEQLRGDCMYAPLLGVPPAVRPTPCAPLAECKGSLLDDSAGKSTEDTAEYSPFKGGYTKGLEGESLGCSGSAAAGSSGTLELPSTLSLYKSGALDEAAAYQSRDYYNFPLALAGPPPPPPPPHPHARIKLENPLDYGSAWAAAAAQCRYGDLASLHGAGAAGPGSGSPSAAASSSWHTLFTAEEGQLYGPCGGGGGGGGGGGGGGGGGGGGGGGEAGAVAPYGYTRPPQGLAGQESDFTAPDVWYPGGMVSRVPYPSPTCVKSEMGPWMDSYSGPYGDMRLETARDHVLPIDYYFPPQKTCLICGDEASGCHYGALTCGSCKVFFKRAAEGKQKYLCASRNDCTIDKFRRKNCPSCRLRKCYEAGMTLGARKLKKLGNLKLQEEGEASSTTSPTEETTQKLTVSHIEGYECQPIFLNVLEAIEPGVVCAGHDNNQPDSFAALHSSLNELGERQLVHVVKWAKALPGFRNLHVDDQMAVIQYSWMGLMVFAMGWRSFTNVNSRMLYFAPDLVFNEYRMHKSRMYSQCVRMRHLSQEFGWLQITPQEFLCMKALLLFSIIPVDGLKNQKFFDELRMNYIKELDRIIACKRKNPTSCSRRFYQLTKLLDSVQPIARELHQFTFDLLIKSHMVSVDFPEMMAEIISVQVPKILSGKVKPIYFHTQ
Assay: Luciferase transcriptional reporter assay, mutant AR, HepG2, antagonist mode
Format: cell-based
Conditions: HepG2, 90 pM R1881, 48 hours; * denotes incomplete inhibition (otherwise 100%); read-out: Antagonism; IC50, AR construct L701H
Procedure: HepG2 cells were maintained in EMEM supplemented with 10% FBS. One day before transfection, the media was changed to EMEM with 10% CSS. T-150 flasks were transiently transfected using 120 μL Lipofectamine 2000 (Life Technologies), 30 μg mutant cDNA (expression vector)—mutant cDNA tested were L701H, T877A, W741C and H874Y—and 40 μg 4×ARE-Luciferase (reporter vector) in OptiMEM and the flasks were incubated overnight. Cells were then trypsinized, counted and resuspended at 500,000 cells/mL. For agonist mode, the compounds of Formula (I) are serially diluted and 50 μL of the compound added per well. 50 μL of the cells are added to each well and incubated for 48 hours. For antagonist mode, a final concentration of 90 pM R1881 was added to the diluted compounds and incubated for 48 hours. The plates were then assayed using SteadyGlo and read on the Envision. Percent Stimulation and Inhibition is determined and analyzed using GraphPad Prism.
All values are calculated relative to the activity of R1881 induced androgen receptor activity (n≧3).

Compound: N#Cc1ncc(N2C(=O)C3(CCC3)N(c3ccc(OC4CCNCC4)cc3)C2=S)cc1C(F)(F)F [Cpd 35, 5-[5-oxo-8-[4-(4-piperidyloxy)phenyl]-7-thioxo-6,8-diazaspiro[3.4]octan-6-yl]-3-(trifluoromethyl)pyridine-2-carbonitrile]
- IC50: 3.36 µM

Source: patent US20180008587A1, “THIOHYDANTOIN ANDROGEN RECEPTOR ANTAGONISTS FOR THE TREATMENT OF CANCER” (Jaressen Pharmaceutica NV, priority 2016, published 2018)
